# Test results from US20230212251A1, “PEPTIDES DERIVED FROM SORTILIN” (UNIVERSITE DE LIMOGES, priority 2019, published 2023).
# Read-outs that look alike come from different tables or passages of the source.
# Key:
# Format in all cases: cell-based
# cells = experiment: Cell penetration test via western blot; conditions: 0 to 500 nM in complete culture medium, 24 hours' treatment
# Experimental: 3. Extraction of the proteins under denaturing conditions Extraction of the whole proteins is carried out directly on the cell layers, after eliminating the supernatants and rinsing the cells in PBS 1×, or even on cell pellets previously stored at −80° C. It is carried out by incubating the cells with the Laemmli lysis buffer (62.5 mM Tris-HCl ref: 11814273001 ROCHE, pH 6.8, 2% SDS ref: L-4509, Sigma-Aldrich, 25% glycerol ref: G5516, Sigma-Aldrich) made up with 1% (v/v) protease inhibitor cocktail (ref: P8340-1ML, Sigma-Aldrich) and 1% (v/v) phosphatase inhibitor cocktail (ref: P0044-1ML, Sigma-Aldrich), in the proportions […] of buffer for 1.10^6 cells for 30 min over ice. In the case of extraction on the cell layer, a scraper (ref: 179693PK, Nunc, ThermoFisher) is used to collect the cells in the lysis buffer. Lysis is then completed by ultrasound parametered at 60 Hz, amplitude 2 s, for 1 minute (ref: SONIVCX-130-220, VWR). The lysates are then centrifuged at 17,000×g (ref: 75002442, Sorvall, ThermoFisher) for 20 min at 4° C., the supernatant containing the proteins is transferred to a sterile 1.5 mL tube (ref: 0030120086, Eppendorf), and the proteins are assayed by the Bradford method.
# 5. […] The concentration of the polyacrylamide gels varies from 8 to 15% as a function of the molecular weight of the proteins to be separated and analyzed. […]
# [1] = tested on: H3255 adenocarcinoma line (EGFR L858R); experiment: Pro-apoptotic effect, real-time IncuCyte Zoom imaging; conditions: H3255, peptide 1 μM, 96 hours real time
# Experimental: (§1) In order to study cell death by apoptosis, the cells are seeded at a concentration of 2000 cells per well in 100 μL of culture medium, in 96-well plates. 24 hours later, the cell medium is removed, then the cells are rinsed once with sterile PBS 1× before adding the culture medium containing the different treatments, including the peptide according to the invention at […], and the reagents necessary for analysis of cell death. These latter are: IncuCyte® Caspase-3/7 Green Reagent (ref: 4440; EssenBio) diluted to 1:1000 in the culture medium; IncuCyte® Annexin V Green Reagent (ref: 4642; EssenBio) diluted to 1:200 diluted in the culture medium. Image acquisition is then carried out by positioning the plates in the IncuCyte Zoom® system (Ref: EssenBio) for 96 hours. Four images per well are then obtained, in high definition, every two hours, with the ×10 objective and the phase-contrast and green channels. These acquisitions are carried out automatically and non-invasively. The data are processed automatically with the IncuCyte Zoom® Live-Cell Analysis System (ref: EssenBio).
# (§2) The pro-apoptotic effect of the peptide of sequence SEQ ID NO 7 at the concentration of 1 μM was measured in real time using the IncuCyte Zoom® system for 96 hours on the A549 line, on human fibroblasts (non-cancerous cells), as well as on two lines of adenocarcinomas H3255 and H1975, respectively presenting mutations of EGFR that are sensitive (L858R) and resistant (L858R/T790M) to the tyrosine kinase activity receptor inhibitors (TKI) used in the clinic via activation of two markers of apoptosis, namely annexin V and caspases 3 and 7. […] In fact, the levels of expression of these markers are identical under the conditions treated with the peptide and the control conditions. The peptide could therefore have a specific toxicity to cancer cells.
# A549 line = experiment: as above; conditions: A549, peptide 1 μM, 96 hours real time
# Experimental: as §1, §2
# [2] = tested on: human fibroblasts (non-cancerous cells); experiment: as above; conditions: peptide 1 μM, 96 hours real time, versus control
# Experimental: as §1, §2
# [3] = tested on: H1975 adenocarcinoma line (EGFR L858R/T790M); experiment: as above; conditions: H1975, peptide 1 μM, 96 hours real time
# Experimental: as §1, §2
# cell nuclei = experiment: Subcellular distribution by indirect immunofluorescence; conditions: 2D and 3D confocal imaging
# Experimental: The cells are seeded on a 24-well plate on 14 mm diameter glass slides. After each treatment condition, the cells are fixed, either with the complete medium containing paraformaldehyde (PFA) at 3.7% for 20 min at 4° C., or with methanol at −20° C. for 5 min. With methanol the fixation is carried out by dehydration (denaturing of the proteins), while with the aldehydes (formaldehyde) the 3D structure of the protein is preserved (fixing by bridging). The phosphorylations are analyzed after fixing with PFA. After fixing, the cell layer is washed 3 times for 5 minutes with […] PBS. In the case of fixing with PFA, the cells are permeabilized with Triton X-100 at 0.1% in PBS for 10 min at 4° C., then washed again. With regard to fixing with methanol, this confers the advantage of fixing and permeabilizing the cells at the same time. […] Starting from the fixing stage, all the solutions are filtered beforehand over a 0.2 μm filter in order to eliminate the fluorescence artefacts and the background noise. […] Then, three washes of 5 min in PBS are carried out, before incubation of the secondary antibody coupled with an Alexa fluor 488® (green fluorescence) (Table 4) for 1 hour at ambient temperature in the PBS-BSA solution. […]
# A549 cell line = experiment: Cell survival measured by XTT (Cell Proliferation Kit II); conditions: XTT dehydrogenase activity, read-out: CI50 (concentration giving 50% inhibition of cell activity)
# Experimental: The antineoplastic effect of the synthetic peptide, comprising Tat and a V5 tag of sequence SEQ ID NO 7 was tested on the A549 cell line (adenocarcinoma line having no mutation on the EDFR). A concentration range (0 to 10 μM) of the synthetic peptide of sequence SEQ ID NO 7 according to the invention was incubated for 24, 48 and 72 hours in the cell medium and the dehydrogenase activity thereof (proxy for viability) was measured (Cell Proliferation Kit II (XTT)-Roche) at the end of each incubation, i.e. at 24, 48 and 72 hours. Analysis of the graph representing the activity as a function of the log of the synthetic peptide concentration made it possible to establish CI50 values corresponding to the concentrations for which the peptide results in 50% inhibition of cell activity. These latter are respectively equal to 1.42, 1.52 and 0.57 μM for incubation times of 24, 48 and 72 hours.
sequence,measurement,setting,value
GRKKRRQRRRPPQVLIVKKYVCGGRFLVHRYSVLQQHAEANGVDGVDALDTASHTNKSGYHDDSDEDLLEGKPIPNPLLGLDST [SEQ ID NO 7],quantity of intracellular peptide detected in the cell lysate (anti-V5 western blot),cells,dose-dependent peptide penetration
same,level of annexin V (marker of apoptosis),[1],increase
same,level of caspases 3 and 7 (marker of apoptosis),[1],increase
same,level of annexin V (marker of apoptosis),A549 line,increase
same,level of caspases 3 and 7 (marker of apoptosis),A549 line,increase
same,activation of annexin V (marker of apoptosis),[2],does not seem to lead to activation
same,activation of caspases 3 and 7 (marker of apoptosis),[2],does not seem to lead to activation
same,level of annexin V (marker of apoptosis),[3],increase
same,level of caspases 3 and 7 (marker of apoptosis),[3],increase
same,"subcellular distribution of the peptide (anti-V5 immunofluorescence, DAPI)",cell nuclei,punctiform nuclear distribution
same,IC50,"A549 cell line; A549, 24 hours incubation",1420 nM
same,IC50,"A549 cell line; A549, 48 hours incubation",1520 nM
same,IC50,"A549 cell line; A549, 72 hours incubation",570 nM
